# Measurements reported in US11679110B2, “Methods of treating disorders using CSF1R inhibitors” (Deciphera Pharmaceuticals, LLC, priority 2018, dated 2023).
# Like-named read-outs stand apart in the source and are kept apart here.
# Assay: Plasma pharmacokinetics of Compound 1 in patients with advanced solid tumor malignancies and TGCT
# Format: in vivo, human
# Settings: for Cmax / AUC(0-t) / Tmax: human, plasma, oral; for Tmax: Median (Min, Max)
# Protocol: PK analysis was conducted on all 38 patients. Serial blood samples were collected for PK and took place on either Day −7, Cycle 1, Day 1 (C1D1) and C2D1 at pre-dose, 0.5, 1, 2, 4, 6, 8, 10-12, and 24 hr time points or Day −7, C1D1, C1D8, and C2D1 at pre-dose, 1, 2, 4, 6, and 8 hr time points, or C1D1, C1D8, and C2D1 at pre-dose, 1, 2, 4, 6, and 8 hr time points. High fat meal was given prior to dosing of Compound 1 on Day −7. PD effects were measured by two methodologies: 1) depletion of CSF1R-expressing monocytes in peripheral blood (Cohorts 1-7) from C1D1, C1D15 and C2D1; and 2) increase of plasma levels of CSF1 and IL-34, the ligands for CSF1R (Cohorts 1-7) on C1D1, C1D15, and C2D1. For the CD16^+ monocyte assay, whole blood collected in an EDTA vacutainer was aliquoted into tubes and incubated with fluorescently-labeled antibodies (CD14-Alexa488 (BD Pharmingen); CD16-PE-Cy7 (BD Pharmingen); and TIE2-APC (R&D Systems). After incubation, red blood cells were lysed, and the remaining cells were washed several times before being analyzed on a flow cytometer. For the plasma CSF1 assay or IL-34, whole blood collected in an EDTA vacutainer was centrifuged, and the plasma was collected and frozen. Plasma levels of CSF1 or IL-34 were measured using a commercial ELISA kit (R&D Systems).
# Cohort 1 had daily dosing.
smiles,measurement,setting,value
"Cc1nc(-c2cnc(NC(C)C)n(C)c2=O)ccc1Oc1ccnc(-c2cnn(C)c2)c1 [Compound 1, 2-(isopropylamino)-3-methyl-5-(6-methyl-5-((2-(1-methyl-1H-pyrazol-4-yl)pyridin-4-yl)oxy)pyridin-2-yl)pyrimidin-4(3H)-one]",Cmax,"20 mg, Cohort 3 20 mg Weekly after 5-day QD loading dose, C2D1, GM (CV %)",530 ng/mL
same,AUC(0-t),"20 mg, Cohort 3 20 mg Weekly after 5-day QD loading dose, C2D1, GM (CV %), read-out: AUC0-8",3380 ng·h/mL
same,Tmax,"20 mg, Cohort 3 20 mg Weekly after 5-day QD loading dose, C2D1",1 h
same,Cmax,"20 mg, Cohort 3 20 mg Weekly after 5-day QD loading dose, Day-7, GM (CV %)",242 ng/mL
same,AUC(0-t),"20 mg, Cohort 3 20 mg Weekly after 5-day QD loading dose, Day-7, GM (CV %), read-out: AUC0-8",1320 ng·h/mL
same,Tmax,"20 mg, Cohort 3 20 mg Weekly after 5-day QD loading dose, Day-7",4 h
same,Cmax,"20 mg, Cohort 4 20 mg QD x 5 d, BIW maintenance dose, C1D1, Geo Mean",268 ng/mL
same,AUC(0-t),"20 mg, Cohort 4 20 mg QD x 5 d, BIW maintenance dose, C1D1, Geo Mean, read-out: AUC0-8 h",1610 ng·h/mL
same,Cmax,"20 mg, Cohort 4 20 mg QD x 5 d, BIW maintenance dose, C1D8, Geo Mean",685 ng/mL
same,AUC(0-t),"20 mg, Cohort 4 20 mg QD x 5 d, BIW maintenance dose, C1D8, Geo Mean, read-out: AUC0-8 h",4660 ng·h/mL
same,Cmax,"20 mg, Cohort 4 20 mg QD x 5 d, BIW maintenance dose, C2D1, Geo Mean",642 ng/mL
same,AUC(0-t),"20 mg, Cohort 4 20 mg QD x 5 d, BIW maintenance dose, C2D1, Geo Mean, read-out: AUC0-8 h",4300 ng·h/mL
same,Cmax,"20 mg, Cohort 4 20 mg QD x 5 d, BIW maintenance dose, Day -7, Geo Mean",183 ng/mL
same,AUC(0-t),"20 mg, Cohort 4 20 mg QD x 5 d, BIW maintenance dose, Day -7, Geo Mean, read-out: AUC0-8 h",1090 ng·h/mL
same,Cmax,"20 mg, Cohort 4 20 mg Twice Weekly after 5-day QD loading dose, C1D1, GM (CV %)",268 ng/mL
same,AUC(0-t),"20 mg, Cohort 4 20 mg Twice Weekly after 5-day QD loading dose, C1D1, GM (CV %), read-out: AUC0-8",1610 ng·h/mL
same,Tmax,"20 mg, Cohort 4 20 mg Twice Weekly after 5-day QD loading dose, C1D1",0.75 h
same,Cmax,"20 mg, Cohort 4 20 mg Twice Weekly after 5-day QD loading dose, C1D8, GM (CV %)",685 ng/mL
same,AUC(0-t),"20 mg, Cohort 4 20 mg Twice Weekly after 5-day QD loading dose, C1D8, GM (CV %), read-out: AUC0-8",4660 ng·h/mL
same,Tmax,"20 mg, Cohort 4 20 mg Twice Weekly after 5-day QD loading dose, C1D8",2.25 h
same,Cmax,"20 mg, Cohort 4 20 mg Twice Weekly after 5-day QD loading dose, C2D1, GM (CV %)",642 ng/mL
same,AUC(0-t),"20 mg, Cohort 4 20 mg Twice Weekly after 5-day QD loading dose, C2D1, GM (CV %), read-out: AUC0-8",4300 ng·h/mL
same,Tmax,"20 mg, Cohort 4 20 mg Twice Weekly after 5-day QD loading dose, C2D1",0.5 h
same,Cmax,"20 mg, Cohort 4 20 mg Twice Weekly after 5-day QD loading dose, Day-7, GM (CV %)",183 ng/mL
same,AUC(0-t),"20 mg, Cohort 4 20 mg Twice Weekly after 5-day QD loading dose, Day-7, GM (CV %), read-out: AUC0-8",1090 ng·h/mL
same,Tmax,"20 mg, Cohort 4 20 mg Twice Weekly after 5-day QD loading dose, Day-7",4 h
same,AUC(0-t),"20 mg, Cohort 7 20 mg QD after 3-day 50 mg QD loading dose, C2D1, GM (CV %), read-out: AUC0-8",7980 ng·h/mL
same,Cmax,"30 mg, Cohort 5 30 mg QD x 5 d, BIW maintenance dose, C1D1, Geo Mean",600 ng/mL
same,AUC(0-t),"30 mg, Cohort 5 30 mg QD x 5 d, BIW maintenance dose, C1D1, Geo Mean, read-out: AUC0-8 h",3390 ng·h/mL
same,Cmax,"30 mg, Cohort 5 30 mg QD x 5 d, BIW maintenance dose, C1D8, Geo Mean",1400 ng/mL
same,AUC(0-t),"30 mg, Cohort 5 30 mg QD x 5 d, BIW maintenance dose, C1D8, Geo Mean, read-out: AUC0-8 h",8800 ng·h/mL
same,Cmax,"30 mg, Cohort 5 30 mg QD x 5 d, BIW maintenance dose, C2D1, Geo Mean",953 ng/mL
same,AUC(0-t),"30 mg, Cohort 5 30 mg QD x 5 d, BIW maintenance dose, C2D1, Geo Mean, read-out: AUC0-8 h",5420 ng·h/mL
same,Cmax,"30 mg, Cohort 5 30 mg QD x 5 d, BIW maintenance dose, Day -7, Geo Mean",278 ng/mL
same,AUC(0-t),"30 mg, Cohort 5 30 mg QD x 5 d, BIW maintenance dose, Day -7, Geo Mean, read-out: AUC0-8 h",1390 ng·h/mL
same,Cmax,"30 mg, Cohort 5 30 mg Twice Weekly after 5-day QD loading dose, C1D1, GM (CV %)",422 ng/mL
same,AUC(0-t),"30 mg, Cohort 5 30 mg Twice Weekly after 5-day QD loading dose, C1D1, GM (CV %), read-out: AUC0-8",2250 ng·h/mL
same,Tmax,"30 mg, Cohort 5 30 mg Twice Weekly after 5-day QD loading dose, C1D1",1 h
same,Cmax,"30 mg, Cohort 5 30 mg Twice Weekly after 5-day QD loading dose, C1D8, GM (CV %)",1160 ng/mL
same,AUC(0-t),"30 mg, Cohort 5 30 mg Twice Weekly after 5-day QD loading dose, C1D8, GM (CV %), read-out: AUC0-8",7160 ng·h/mL
same,Tmax,"30 mg, Cohort 5 30 mg Twice Weekly after 5-day QD loading dose, C1D8",1 h
same,Cmax,"30 mg, Cohort 5 30 mg Twice Weekly after 5-day QD loading dose, C2D1, GM (CV %)",822 ng/mL
same,AUC(0-t),"30 mg, Cohort 5 30 mg Twice Weekly after 5-day QD loading dose, C2D1, GM (CV %), read-out: AUC0-8",5420 ng·h/mL
same,Tmax,"30 mg, Cohort 5 30 mg Twice Weekly after 5-day QD loading dose, C2D1",1.5 h
same,Cmax,"30 mg, Cohort 5 30 mg Twice Weekly after 5-day QD loading dose, Day-7, GM (CV %)",278 ng/mL
same,AUC(0-t),"30 mg, Cohort 5 30 mg Twice Weekly after 5-day QD loading dose, Day-7, GM (CV %), read-out: AUC0-8",1390 ng·h/mL
same,Cmax,"30 mg, Cohort 6 30 mg QD x 5 d, BIW maintenance dose (so in the source), C2D1, Geo Mean",1150 ng/mL
same,AUC(0-t),"30 mg, Cohort 6 30 mg QD x 5 d, BIW maintenance dose (so in the source), C2D1, Geo Mean, read-out: AUC0-8 h",7290 ng·h/mL
same,Cmax,"40 mg, Cohort 6 40 mg Twice Weekly after 5-day QD loading dose, C1D1, GM (CV %)",830 ng/mL
same,AUC(0-t),"40 mg, Cohort 6 40 mg Twice Weekly after 5-day QD loading dose, C1D1, GM (CV %), read-out: AUC0-8",4790 ng·h/mL
same,Cmax,"40 mg, Cohort 6 40 mg Twice Weekly after 5-day QD loading dose, C1D8, GM (CV %)",1860 ng/mL
same,AUC(0-t),"40 mg, Cohort 6 40 mg Twice Weekly after 5-day QD loading dose, C1D8, GM (CV %), read-out: AUC0-8",12000 ng·h/mL
same,Tmax,"40 mg, Cohort 6 40 mg Twice Weekly after 5-day QD loading dose, C1D8",1 h
same,Cmax,"40 mg, Cohort 6 40 mg Twice Weekly after 5-day QD loading dose, C2D1, GM (CV %)",1150 ng/mL
same,AUC(0-t),"40 mg, Cohort 6 40 mg Twice Weekly after 5-day QD loading dose, C2D1, GM (CV %), read-out: AUC0-8",7290 ng·h/mL
same,Tmax,"40 mg, Cohort 6 40 mg Twice Weekly after 5-day QD loading dose, C2D1",1 h
same,Cmax,"40 mg, Cohort 6 40 mg Twice Weekly after 5-day QD loading dose, Day-7, GM (CV %)",454 ng/mL
same,AUC(0-t),"40 mg, Cohort 6 40 mg Twice Weekly after 5-day QD loading dose, Day-7, GM (CV %), read-out: AUC0-8",2250 ng·h/mL
same,Tmax,"40 mg, Cohort 6 40 mg Twice Weekly after 5-day QD loading dose, Day-7",4 h
same,Cmax,"50 mg, Cohort 7 50 mg QD x 3 d, QD maintenance dose, C2D1, Geo Mean",1250 ng/mL
same,AUC(0-t),"50 mg, Cohort 7 50 mg QD x 3 d, QD maintenance dose, C2D1, Geo Mean, read-out: AUC0-8 h",7980 ng·h/mL
same,Cmax,"Cohort 7 20 mg QD after 3-day 50 mg QD loading dose, C1D1, GM (CV %)",440 ng/mL
same,AUC(0-t),"Cohort 7 20 mg QD after 3-day 50 mg QD loading dose, C1D1, GM (CV %), read-out: AUC0-8",2310 ng·h/mL
same,Cmax,"Cohort 7 20 mg QD after 3-day 50 mg QD loading dose, C1D8, GM (CV %)",1010 ng/mL
same,AUC(0-t),"Cohort 7 20 mg QD after 3-day 50 mg QD loading dose, C1D8, GM (CV %), read-out: AUC0-8",6740 ng·h/mL
same,Cmax,"Cohort 7 20 mg QD after 3-day 50 mg QD loading dose, C2D1, GM (CV %)",840 ng/mL
same,Cmax,"Cohort 7 20 mg QD after 3-day 50 mg QD loading dose, Day-7, GM (CV %)",272 ng/mL
same,AUC(0-t),"Cohort 7 20 mg QD after 3-day 50 mg QD loading dose, Day-7, GM (CV %), read-out: AUC0-8",800 ng·h/mL
same,Tmax,"Cohort 7 20 mg QD after 3-day 50 mg QD loading dose, Day-7",5 h
same,half-life,"patients, dose cohorts 1 to 7, no accurate estimation",long half-life
